US20120165319A1, “INHIBITORS OF INTERLEUKIN-1 BETA CONVERTING ENZYME” (VERTEX PHARMACEUTICALS INCORPORATED, priority 1995, published 2012)
Where “and” joins values, the source holds several entries; their conditions need not be identical. Equal values may be shown once. Entries after “also recorded” stand apart in the source; their conditions may differ. Read-outs that look alike come from different tables or passages of the source. Blank lines part the entries; values can stand above or below the molecule they belong to.

What was measured:
[1] = test system: IL-1β production, LPS-challenged mice; experiment: In vivo acute assay for efficacy as anti-inflammatory agent: LPS-induced IL-1β production in mice; design: species or system mouse; conditions: for inhibition at 50 mg/kg: po, read-out: percent inhibition of IL-1β production; for inhibition at 50 mg/kg / percent inhibition of IL-1β production: compound PO; for IP % Inhibition / POS Inhibition: % inhibition of IL-β production, 50 mg/kg (Table 3); for inhibition of IL-1β secretion/production after IP administration: LPS-challenged CD1 mice, IP injection one hour after LPS
Outline: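 CD1 mice (n=6) were challenged with LPS 20 mg/kg IP and given compound IP in olive oil:DMSO:ethanol (90:5:5) 1 h after LPS, or at the time of challenge for some analogs. Blood was taken 7 h after LPS and serum IL-1β was measured by ELISA. Oral gavage at 50 mg/kg was also tested.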

[2] = test system: IL-1β, human whole blood; experiment: Whole blood assay for IL-1β production; type: cell-based
Outline: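 Human whole blood collected on Na2EDTA was treated with serially diluted compound in saline and then stimulated with LPS at 5.0 ng/ml final, for 16-18 h at 30 °C, in duplicate or triplicate. Plasma IL-1β was measured by ELISA at 1:200 dilution.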

[3] = Pharmacokinetic studies in the mouse (i.v. clearance, plasma levels); type: in vivo; conditions: for clearance: CD-1, plasma; for clearance / concentration at 2 min: iv; for clearance / concentration at 2 min / Clearance Mouse, i.v.: mouse; for concentration at 2 min: plasma, read-out: mean plasma level at 2 minutes
Outline: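 Male CD-1 mice (26-31 g) given 25 mg/kg i.v. via tail vein in 0.02M Tris (2.5 mg/ml), groups of 5 per timepoint from 2 to 120 min. Heparinized plasma deproteinated (perchloric acid or acetonitrile) and analysed by reverse-phase HPLC with UV or MS detection against plasma-spiked calibration (0.5 to 50 μg/ml).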

[4] = Mus musculus, 0 h, LPS challenged mice, 50 mg/kg, administered 0 h relative to time of LPS challenge
[5] = Mus musculus, 1 h, LPS challenged mice, 50 mg/kg, administered −1 h relative to time of LPS challenge
[6] = Mus musculus, 2 h, LPS challenged mice, 50 mg/kg, administered −2 h relative to time of LPS challenge
[7] = Homo sapiens, Table 17, read-out: Whole human blood IC50
[8] = Homo sapiens, * = values obtained upon reassay, read-out: Whole human blood IC50
[9] = LPS challenged mice, PO, 50 mg/kg, * = values obtained in subsequent assays (Table 4)
[10] = male CD-1 mice, i.v. tail vein, 25 mg/kg
[11] = * = values obtained upon reassay, read-out: Whole human blood IC50

Molecule: O=C1C[C@H](NC(=O)[C@@H]2CCCN3C(=O)CC[C@H](NC(=O)c4ccccc4)C(=O)N23)C(OCc2ccccc2)O1 (single isomer, unassigned) [Compound 2100n]
melting point: 112 to 115 °C
inhibition at 50 mg/kg [1, 4]: 64%
inhibition at 50 mg/kg ([1]; Mus musculus, 1 h, LPS challenged mice, 50 mg/kg, administered +1 h relative to time of LPS challenge): 73%
inhibition at 50 mg/kg [1, 5]: 9%
inhibition at 50 mg/kg [1, 6]: 21%
IC50 [2, 7]: 4000 nM

Molecule: O=C(O)C[C@H](NC(=O)[C@@H]1CCCN2C(=O)CC[C@H](NC(=O)CCc3ccccc3)C(=O)N12)C(=O)CSCc1ccccc1Cl [Compound 125b, [3S(1S,9S)]-3-(6,10-dioxo-1,2,3,4,7,8,9,10-octahydro)-9-(3-phenylpropionyl-amino)-6H-pyridazine[1,2-a][1,2]diazepine-1-carboxamido-5-(2-chlorophenyl-methylthio)-4-oxopentanoic acid]
melting point: 76 to 80 °C
IC50 [2, 8]: 4500 nM

Molecule: O=C[C@H](CC(=O)O)NC(=O)[C@@H]1CCCN2C(=O)CC[C@H](NC(=O)c3ccccc3)C(=O)N12 [Compound 214e, [3S(1S,9S)]3-(9-Benzoylamino-6,10-dioxo-1,2,3,4,7,8,9,10-octahydro-6H-pyridazino[1,2-a][1,2]-diazepine-1-carboxamido)-4-oxobutanoic acid]
IP % Inhibition ([1]; LPS-challenged mice): 78%
POS Inhibition ([1]; LPS-challenged mice, PO): 75%
Inhibition of IL-1β Production, compound administered 0 hr relative to LPS challenge [1, 9]: 48* % and 80* %
Inhibition of IL-1β Production, compound administered −1 hr relative to LPS challenge [1, 9]: 44* %
Inhibition of IL-1β Production, compound administered −2 hr relative to LPS challenge [1, 9]: 43* % and 39* %
percent inhibition of IL-1β production ([1]; LPS challenged mice, 50 mg/kg, administered 0 h relative to time of LPS challenge): 70% and 48%
percent inhibition of IL-1β production ([1]; LPS challenged mice, 50 mg/kg, administered −2 h relative to time of LPS challenge): 43%
inhibition of IL-1β secretion/production after IP administration ([1]; result in words): dose dependent inhibition; also recorded: inhibit IL-1β production
inhibition of IL-1β secretion/production after oral (PO) administration ([1]; LPS-challenged mice, oral gavage, 50 mg/kg, result in words): inhibited IL-1β secretion; also recorded: inhibit IL-1β production
inhibition at 50 mg/kg [1, 5]: 44%
inhibition at 50 mg/kg [1, 6]: 39%
ED50 ([1]; Mus musculus, CD1 mice, LPS 20 mg/kg IP, compound IP one hour after LPS, blood seven hours after LPS, read-out: ED50, inhibition of IL-1β secretion): ~15 mg/kg
IC50 [2, 8]: 1300 nM
clearance ([3]; 25 mg/kg): 23 mL/min/kg
mean plasma level at 90 and 120 minutes [3, 10]: < 2 µg/mL
concentration at 2 min [3, 10]: 70 µg/mL

Molecule: O=C(O)C[C@H](NC(=O)[C@@H]1CCCN2C(=O)CC[C@H](NC(=O)OCc3ccccc3)C(=O)N12)C(=O)COC(=O)c1c(Cl)cccc1Cl [Compound 217d, [3S(1S,9S)]3-(9-Benzyloxycarbonylamino-6,10-dioxo-1,2,3,4,7,8,9,10-octahydro-6H-pyridazino[1,2-a][1,2]-diazepine-1-carboxamido)-5-(2,6-dichlorobenzoyloxy)-4-oxopentanoic acid]
melting point: 85 to 110 °C
IC50 [2, 8]: 4000 nM

Molecule: O=C(O)C[C@H](NC(=O)[C@@H]1CCCN2C(=O)CC[C@H](NC(=O)c3ccccc3)C(=O)N12)C(=O)COC(=O)c1c(Cl)cccc1Cl [Compound 217e, [3S(1S,9S)]3-(9-Benzoylamino-6,10-dioxo-1,2,3,4,7,8,9,10-octahydro-6H-pyridazino[1,2-a][1,2]-diazepine-1-carboxamido)-5-(2,6-dichlorobenzoyloxy)-4-oxopentanoic acid]
inhibition of IL-1β secretion/production after IP administration ([1]; result in words): significant inhibition; also recorded: inhibits IL-1β production
IC50 [2, 8]: 2000 nM
clearance ([3]; 25 mg/kg): > 50 mL/min/kg
mean plasma concentration at 60-120 minutes [3, 10]: < 0.2 µg/mL
concentration at 2 min [3, 10]: ~55 µg/mL

Molecule: O=C[C@H](CC(=O)O)NC(=O)[C@@H]1CCCN2C(=O)CCN(NC(=O)c3ccccc3)C(=O)N12 [Compound 265, [3S(4S)]3-(7-Benzamido-6,10-dioxo-1,2,3,4,7,8,9,10-octahydro-6H-pyridazino[1,2-a][1,2,4]triazepine-4-carboxamido)-4-oxobutanoic acid]
IP % Inhibition ([1]; LPS-challenged mice): 30%
POS Inhibition ([1]; LPS-challenged mice, PO): 27%
IC50 [2, 8]: 1400 nM
clearance ([3]; 25 mg/kg): 23 mL/min/kg

Molecule: COC(=O)N[C@H]1CCC(=O)N2CCC[C@@H](C(=O)N[C@@H](CC(=O)O)C(=O)COC(=O)c3c(Cl)cccc3Cl)N2C1=O [Compound 284, [3S(1S,9S)]5-(2,6-Dichlorobenzoyloxy)-3-[6,10-dioxo-9-(methoxycarbonyl)amino-1,2,3,4,7,8,9,10-octahydro-6H-pyridazino[1,2-a][1,2]diazepine-1-carboxamido]-4-oxopentanoic acid]
IC50 [2, 8]: 550 nM
clearance ([3]; 25 mg/kg): 77 mL/min/kg

Molecule: O=C[C@H](CC(=O)O)NC(=O)[C@@H]1CCCN2C(=O)CC[C@H](NC(=O)c3ccsc3)C(=O)N12 [Compound 410]
IC50 [2, 8]: 2800 nM
clearance ([3]; 25 mg/kg): 32 mL/min/kg

Molecule: O=C[C@H](CC(=O)O)NC(=O)[C@@H]1CCCN2C(=O)CC[C@H](NC(=O)c3ccc(NC(=O)Cc4ccccc4)cc3)C(=O)N12 [Compound 486, [3S(1S,9S)]3-{6,10-Dioxo-1,2,3,4,7,8,9,10-octahydro-9-[4-(phenylacetamido)benzamido]-6H-pyridazino[1,2-a][1,2]diazepine-1-carboxamido}-4-oxobutanoic acid]
melting point: 165 to 169 °C
inhibition at 50 mg/kg [1, 4]: 15%
inhibition at 50 mg/kg [1, 6]: 19%
IC50 [2, 8]: 500 nM

Molecule: CC(C)CC(=O)Nc1ccc(C(=O)N[C@H]2CCC(=O)N3CCC[C@@H](C(=O)N[C@H](C=O)CC(=O)O)N3C2=O)cc1 [Compound 487, [3S(1S,9S)]3-{6,10-Dioxo-9-[4-(3-methylbutan-1-oylamino)benzamido]-1,2,3,4,7,8,9,10-octahydro-6H-pyridazino[1,2-a][1,2]diazepine-1-carboxamido}-4-oxobutanoic acid]
melting point: 176 to 180 °C
inhibition at 50 mg/kg [1, 4]: 20%
inhibition at 50 mg/kg [1, 6]: 17%
IC50 [2, 11]: 400 nM
IC50 [2, 8]: 500 nM

Molecule: CC(=O)Nc1ccc(C(=O)NN2CCC(=O)N3CCC[C@@H](C(=O)N[C@H](C=O)CC(=O)O)N3C2=O)cc1 [Compound 1018, [3S(4S)]3-{7-[(4-Acetamido)benzamido]-6,10-Dioxo-1,2,3,4,7,8,9,10-octahydro-6H-pyridazino[1,2-a][1,2,4]-triazepine-4-carboxamido}-4-oxobutanoic acid]
melting point: 235 to 240 °C
IC50 [2, 7]: 5500 nM

Molecule: O=C[C@H](CC(=O)O)NC(=O)[C@@H]1CCCN2C(=O)CCN(NC(=O)c3cc4ccccc4[nH]3)C(=O)N12 [Compound 1075, [3S(4S)]3-[6,10-Dioxo-7-(indole-2-carboxamido)-1,2,3,4,7,8,9,10-octahydro-6H-pyridazino[1,2-a][1,2,4]triazepine-4-carboxamido]-4-oxobutanoic acid]
melting point: 210 to 215 °C
IC50 [2, 7]: 5500 nM

Molecule: [3S(1S,9S)]3-[(6,10-Dioxo-9-(methanesulphonylamino)-1,2,3,4,7,8,9,10-octahydro-6H-pyridazino[1,2-a][1,2]diazepine-1-carboxamido]-5-(5-methyl-3-phenylisoxazoyloxy)-4-oxopentanoic acid [505 b]
IC50 ([2]; Table 18, read-out: Whole human blood IC5O): 2100 nM
Clearance Mouse, i.v. ([3]; Table 18): 161 mL/min/kg

Other lines, results leading:

IC50 [2, 8]: 7000 nM
clearance ([3]; 25 mg/kg): 70 mL/min/kg
Molecule: CC(=O)N[C@H]1CCC(=O)N2CCC[C@@H](C(=O)N[C@@H](CC(=O)O)C(=O)COC(=O)c3c(Cl)cccc3Cl)N2C1=O [Compound 217c, [3S(1S,9S)]3-(9-Acetylamino-6,10-dioxo-1,2,3,4,7,8,9,10-octahydro-6H-pyridazino-[1,2-a][1,2]diazepine-1-carboxamido)-5-(2,6-dichlorobenzoyloxy)-4-oxopentanoic acid]

IC50 [2, 11]: 300 nM
Clearance Mouse, i.v. ([3]; 25 mg/kg): 67 mL/min/kg
Molecule: O=C(O)CC(NC(=O)[C@@H]1CCCN2C(=O)CC[C@H](NC(=O)c3ccccc3)C(=O)N12)C(=O)CF (stereo partly drawn) [Compound 230e, [3RS,(1S,9S)]3-(9-Benzoylamino-6,10-dioxo-1,2,3,4,7,8,9,10-octahydro-6H-pyridazino[1,2-a][1,2]-diazepine-1-carboxamido)-5-fluoro-4-oxopentanoic acid]

IC50 [2, 8]: > 20000 nM
clearance ([3]; 25 mg/kg): 28 mL/min/kg
Molecule: CC(=O)N1C[C@H](NC(=O)c2ccc3ccccc3c2)C(=O)N(CC(=O)N[C@H](C=O)CC(=O)O)c2ccccc21 [Compound 605n]
